Data set [1] can be described thus: Cytotoxicity against mouse EAC cells. The format is functional, cell-based. Particulars: Ehrlich.
For the next data set, the species on record is Oryctolagus cuniculus. The experiment in a line: Blocked of calcium channel in rabbit smooth muscle. It is filed as tissue-based. Particulars: Muscle tissue.
In the next data set the test system is Rattus norvegicus. Description: Decrease in blood pressure in rat at 45 uM/kg. It is filed as organism-based.
Data set [2] can be described thus: Negative inotropic activity in guinea pig atria muscle at 36 uM. The format is functional, Cavia porcellus, Muscle tissue.
In a further data set the test system is Heart. The experiment in a line: Toxicity in isolated guinea pig heart assessed as bradycardia at 45 uM/kg. The format is tissue-based, Cavia porcellus. As to conditions: ex_vivo.

Values after ≈ are worked out from the molar mass of the structure shown.

`CC1=C2CC[C@@]3(C)C/C=C(\C)CC(=O)C[C@@H](C)C[C@@H](OC1=O)[C@H]23` [CLAVIROLIDE B]: the IC50 in data set [1] worked out at 21 µg/mL (≈ 66.4 µM). Moreover, the pD2 in the data set filed under Oryctolagus cuniculus was 4.68.
In turn, `CC1=C2CC[C@@]3(C)CC[C@H](C)CC(=O)C[C@@H](C)C[C@@H](OC1=O)[C@H]23` [CLAVIROLIDE C] returned an IC50 in data set [1] of 27 µg/mL (≈ 84.8 µM). Moreover, the Activity in the data set with Rattus norvegicus stood at 24 mmHg; in data set [2], 50%; in the data set on Heart, 43.7%. Besides, the pD2 in the data set filed under Oryctolagus cuniculus came to 5.48.
`CC1=C2CC[C@@]3(C)CC/C(C)=C\C(=O)C[C@@H](C)C[C@@H](OC1=O)[C@H]23` [CLAVIROLIDE D] showed an IC50 in data set [1] of 11.7 µg/mL (≈ 37 µM). In addition, the pD2 in the data set listed under Oryctolagus cuniculus came to 4.79.
`CC1=C2CC[C@@]3(C)C/C=C(/C)CC(=O)C[C@@H](C)C[C@@H](OC1=O)[C@H]23` [CLAVULACTONE] had a half-inhibitory concentration (IC50) in data set [1] of 8 µg/mL (≈ 25.3 µM).

Usually IC50 stands for the concentration that gives 50% inhibition.

The record behind these values is ChEMBL document CHEMBL1158945, “Four Novel Diterpenoids: Clavirolides B, C, D, and E from the Chinese Soft Coral Clavularia viridis” (J Nat Prod, 1991).
